Structures are written as SMILES.

Consider one molecule from patent publication US20170216240A1, “METHODS FOR MODULATING IKS CHANNEL ACTIVITY” (UNIVERSITY OF MIAMI, priority 2014, published 2017).

For assay [1], the target named is Kv7.1 (Homo sapiens, UniProt P51787). Put plainly: G(V) shift of Kv7.1 expressed in Xenopus laevis oocytes, two-electrode voltage-clamp. Conditions: Kv7.1, 70 μM, pH 7.4. It counts as cell-based. From the text: cDNAs encoding human Kv7.1 (GEnBAnk Acc. No. NM_000218) and KCNE1 (NM_000219) were subcloned into the expression vectors pGEM or pXOOM, containing the 5′- and 3′-untranslated regions for Xenopus laevis β-globin as well as a poly-A segment (Jespersen et al., Biotechniques 32, 536-538, 540 (2002)). The truncated KCNE1 construct KCNE1ΔC was constructed by introducing a Stop codon at position 67 using Quikchange site-directed mutagenesis kit (Qiagen). The construct was fully sequenced to ensure proper mutation and absence of unwanted mutations (sequencing by Genewiz). The concatemers E1-Kv7.1-Kv7.1 and E1-Kv7.1 were provided by Dr. R. S. Kass at Columbia University, and can be prepared as described in Chan et al. Journal of General Physiology 132(2), 135-144, (2012)). The E1-Kv7.1 construct was made by linking the C-terminus of KCNE1 to the N-terminus of KCNQ1. The E1-Kv7.1-Kv7.1 construct was made by digesting the E1-Kv7.1 and a Kv7.1-Kv7.1 dimer with Xho1 and inserting the 2-kb fragment from the Kv7.1-Kv7.1 dimer digest into the cut KCNE1-Kv7.1 construct. The DNA encoding E1-Kv7.1-Kv7.1 and E1-Kv7.1 were in the pGEM vector and contained mutations to make the constructs suitable for voltage-clamp fluorometry recordings (Wang et al., J Biol Chem 273, 34069-34074 (1998)). The original KCNE1 and Kv7.1 sequences were therefore removed, one at a time, from the pGEM vector using different restriction enzymes (New England Biolabs). Sequences were separated using gel electrophoresis and harvested using Qiagen gel extraction kit. Corresponding wild type sequences were ligated into the construct using T4 Ligase (New England Biolabs). To ensure correct sequence the constructs were sequenced (Genewiz) and tested with different restriction enzymes in combination with gel electrophoresis to measure length and conformation of the gene. cRNA for injection of all constructs was prepared from linearized DNA using the T7 mMessage mMachine transcription kit (Ambion) according to the manufactures instructions. RNA quality was checked by gel electrophoresis, and RNA concentrations were quantified by UV spectroscopy.
Xenopus laevis oocytes were isolated and maintained (Bentzen, B. H. et al. Neuropharmacology 51, 1068-1077 (2006)). Approximately 50 nl cRNA (50 ng Kv7.1, KCNE1-Kv7.1-Kv7.1 or KCNE1-Kv7.1 alternatively 25 ng Kv7.1 together with 8 ng KCNE1 or KCNE1ΔC) was injected into each oocyte using a Nanojet microinjector (Drummond). Electrophysiological experiments were made 2-5 days after injection. Currents were measured at room temperature with the two-electrode voltage-clamp technique (CA-1B Dagan amplifier). Currents were sampled at 1-3.3 kHz, filtered at 500 Hz, and not leakage corrected. […] A control solution containing (in mM): 88 NaCl, 1 KCl, 15 HEPES, 0.4 CaCl2, and 0.8 MgCl2 was used. NaOH was added to adjust pH to 7.4, yielding a final sodium concentration of about 100 mM. The holding voltage was generally set to −80 mV. Activation curves were generally elicited by stepping to test voltages between −110 and +60 mV (2-4 s durations and 10 mV increments) followed by a tail voltage of −30 mV. For recordings of Kv7.1 at pH 9 and pH 10, the holding voltage was set to more negative voltages because the largest DHA-induced shifts induced channel opening already at −80 mV. […] Therefore, in arachidonyl amine experiments a brief hyperpolarizing pulse of 50 ms to −120 mV was introduced between the test voltage and the tail voltage to relief the channels from inactivation.
Test compounds were dissolved in 99.5% ethanol to a concentration of 100 mM and stored at −20° C. (Börjesson et al., Biophys J 95, 2242-2253 (2008); Börjesson et al., Biophys J 98, 396-403 (2010)). Shortly before experiments, test compounds were diluted in control solution to the desired test concentration. Pure control solution was added to the bath using a gravity-driven perfusion system. […]
(Two-electrode voltage clamp is typically applied to oocytes expressing channels or transporters.)

The subject of assay [2] is intact guinea pig hearts. Put plainly: Restoration of QT interval in intact hearts with E4031-induced Long QT. To be noted: ECG and ventricular surface action potential. From the text: Long QT syndrome was induced in intact guinea pig hearts by administration of the drug E4031, a HERG channel blocker.

On to `CCCCC/C=C\C/C=C\C/C=C\C/C=C\CCCC(=O)NCCS(=O)(=O)O` [N-AT, N-arachidonoyl taurine], for which the “ΔV1/2 ± SEM (G(V) shift)” value in assay [1] (listed as N-arachidonoyl taurine) was “about −30 mV”; in assay [1] (listed as N—AT), −26.2 ± 2.7 mV. Besides, the “QT interval in hearts with prolonged QT induced by E4031” value in assay [2] is “restores the QT interval”.
